According to patent EP0453621A1, “Polymer-modified drugs having enhanced biological and pharmacological activities” (W.R. Grace & Co.-Conn., priority 1990, dated 1991):
Ends that are not written are not given here. Peptide text beside a SMILES is read from it.

Columns and labels:
[1] = Circulatory half-life of radioiodinated peptide or conjugate after tail vein injection; format: in vivo, C57B1/6 mice; details: i.v. tail vein
Procedure: The conjugate from Example XIII was passed over a disposable Sephadex G25 column (PD10 from Pharmacia, Inc.) to separate free from polymer-bound peptide. Confirmation of the purity of the conjugate was obtained by HPLC. About 45 µg of conjugate (based on peptide) were radiolabeled with 125-iodine using the well known chloramine-T procedure. Free 125-iodine was separated from radiolabeled conjugate using a PD10 column. Of the original 30 µCi of Na¹²⁵I used for the iodination, more than 23 µCi were incorporated into the conjugate.
Portions of the radiolabeled YRGDS-Prepolymer A conjugate from Example XIV were injected into the tail veins of C57B1/6 mice. As a control, YRGDS free peptide was radioiodinated by the procedure described in Example XIV and also injected. At various times blood was withdrawn from the animals and the amount of radioiodine remaining in the circulation determined using a gamma counter. A biphasic clearance curve (α:β) was obtained for both species. […] Thus by coupling the peptide to this polymer its clearance rate from the circulation is markedly extended.

[2] = test system: B16 cell; test: Inhibition of B16 cell spreading on a plate coated with fibronectin; details: the conjugate value is based on octapeptide, read-out: concentration for 50% inhibition of cell spreading
Procedure: The biological activity of the conjugate formed in Example XV was determined in an assay which measures inhibition of B16 cell spreading on a plate coated with fibronectin.

Row | IC50 [2] [µM] | Compound | t½α ([1]; first phase of biphasic clearance) [s] | label cleared in initial phase ([1]; in one minute, 125-iodine label)
1 |  | N=C(N)NCCC[C@H](NC(=O)[C@@H](N)Cc1ccc(O)cc1)C(=O)NCC(=O)N[C@@H](CC(=O)O)C(=O)N[C@@H](CO)C(=O)O [YRGDS, tyr-arg-gly-asp-ser] (H-YRGDS-OH) | 30 | about 75%
2 | 340 | GRGDSPAC-Prepolymer A conjugate: peptide gly-arg-gly-asp-ser-pro-ala-cys (SEQ. ID No. 3) conjugated with Prepolymer A (also: conjugated with Prepolymer A, site not given here) |  | 
